Assay results as given in US11981661B2, “Heterocyclic compounds” (Hoffmann-La Roche Inc., priority 2020, dated 2024).

Target: T1, MAGL (Homo sapiens, UniProt Q99685)
T1 sequence (Q99685 1-303): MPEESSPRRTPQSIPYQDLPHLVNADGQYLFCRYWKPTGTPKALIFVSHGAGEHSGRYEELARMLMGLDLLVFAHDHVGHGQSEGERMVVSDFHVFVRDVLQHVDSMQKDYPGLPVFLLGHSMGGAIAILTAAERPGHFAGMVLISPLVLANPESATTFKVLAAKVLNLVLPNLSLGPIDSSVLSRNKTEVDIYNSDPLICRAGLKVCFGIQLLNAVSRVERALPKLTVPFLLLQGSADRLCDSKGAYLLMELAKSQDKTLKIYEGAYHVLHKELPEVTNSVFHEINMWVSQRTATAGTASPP
Experiment: 2-AG assay (MAGL inhibitory activity, hydrolysis of 2-arachidonoylglycerol followed by mass spectrometry)
Assay type: biochemical
Conditions: 50 pM MAGL, 8 μM 2-arachidonoylglycerol, 15 min preincubation, 30 min incubation at RT, concentration range 12.5 μM to 0.8 pM
Procedure: Compounds were profiled for MAGL inhibitory activity by determining the enzymatic activity by following the hydrolysis of the natural substrate 2-arachidonoylglycerol resulting in arachidonic acid, which can be followed by mass spectrometry. This assay is hereinafter abbreviated “2-AG assay”.
The 2-AG assay was carried out in 384 well assay plates (PP, Greiner Cat #784201) in a total volume of 20 μL. Compound dilutions were made in 100% DMSO (VWR Chemicals 23500.297) in a polypropylene plate in 3-fold dilution steps to give a final concentration range in the assay from 12.5 μM to 0.8 pM. 0.25 μL compound dilutions (100% DMSO) were added to 9 μL MAGL in assay buffer (50 mM TRIS (GIBCO, 15567-027), 1 mM EDTA (Fluka, 03690-100 mL), 0.01% (v/v) Tween. After shaking, the plate was incubated for 15 min at RT. To start the reaction, 10 μL 2-arachidonoylglycerol in assay buffer was added. The final concentrations in the assay was 50 pM MAGL and 8 μM 2-arachidonoylglyerol. After shaking and 30 min incubation at RT, the reaction was quenched by the addition of 40 μL of ACN containing 4 μM of d8-arachidonic acid. The amount of arachidonic acid was traced by an online SPE system (Agilent Rapidfire) coupled to a triple quadrupole mass spectrometer (Agilent 6460). A C18 SPE cartridge (G9205A) was used in an ACN/water liquid setup. The mass spectrometer was operated in negative electrospray mode following the mass transitions 303.1→259.1 for arachidonic acid and 311.1→267.0 for d8-arachidonic acid. The activity of the compounds was calculated based on the ratio of intensities [arachidonic acid/d8-arachidonic acid].

Point of comparison: `O=C(CCc1ccn[nH]1)N1CC(OCc2ccc(C(F)(F)F)cc2F)C1` [Example 47, 1-[3-[[2-Fluoro-4-(trifluoromethyl)phenyl]methoxy]azetidin-1-yl]-3-(1H-pyrazol-5-yl)propan-1-one], IC50 430 nM. Against it:
- O=C(NCCc1cnn[nH]1)N1CC(OCc2ccc(C(F)(F)F)cc2F)C1 [Example 64, 3-[[2-Fluoro-4-(trifluoromethyl)phenyl]methoxy]-N-[2-(1H-triazol-5-yl)ethyl]azetidine-1-carboxamide] — 4.6-fold lower, 93 nM
- O=C1NC(COC(=O)N2CC(c3ccc(N4CCC(C(F)(F)F)C4)nc3)C2)CO1 (single isomer, unassigned) [Example 87, (+)- or (−)-[(4S)-2-Oxooxazolidin-4-yl]methyl 3-[6-[3-(trifluoromethyl)pyrrolidin-1-yl]-3-pyridyl]azetidine-1-carboxylate] — 13-fold lower, 32 nM
- O=C1N[C@H](CCC(=O)N2CC(c3ccc(S(=O)(=O)C(F)(F)F)cc3)C2)CO1 [Example 76, (4R)-4-[3-Oxo-3-[3-[4-(trifluoro-methylsulfonyl)phenyl]azetidin-1-yl]propyl]oxazolidin-2-one] — 5.3-fold lower, 81 nM
- O=C1N[C@H](CCC(=O)N2CC3(CCN(Cc4cccc(S(=O)(=O)C(F)(F)F)c4)CC3)C2)CO1 [Example 195, (4R)-4-[3-Oxo-3-[7-[[3-(trifluoro-methylsulfonyl)phenyl]methyl]-2,7-diazaspiro [3.5]nonan-2-yl]propyl] oxazolidin-2-one] — 15-fold lower, 28 nM
- O=C1N[C@H](CCC(=O)N2CC(c3ccc([C@H]4C[C@H](C(F)(F)F)C4)nc3)C2)CO1 [Example 203, Trans-(4R)-4-[3-Oxo-3-[3-[6-[3-(trifluoromethyl)cyclobutyl]-3-pyridyl]azetidin-1-yl]propyl]oxazolidin-2-one] — 5.7-fold lower, 75 nM
- O=C1N[C@H](CCC(=O)N2CC(c3ccc(N4CCC(C(F)(F)F)C4)cc3)C2)CO1 (stereo partly drawn) [Example 135, (4R)-4-[3-Oxo-3-[3-[4-[3-(trifluoro-methyl)pyrrolidin-1-yl]phenyl]azetidin-1-yl]propyl] oxazolidin-2-one] — 86-fold lower, 5 nM
- O=C1CCC(CCC(=O)N2CC(c3ccc(-c4ccc(F)cc4F)cc3)C2)N1 (single isomer, unassigned; (-)) [Example 9, (−)-5-[3-[3-[4-(2,4-Difluorophenyl)phenyl]azetidin-1-yl]-3-oxo-propyl]pyrrolidin-2-one] — within 1.5-fold, 550 nM
- O=C1N[C@H](CCC(=O)N2CC(c3ccc(N4CCC(C(F)(F)F)C4)nc3)C2)CO1 (stereo partly drawn) [Example 34, (4R)-4-[3-Oxo-3-[3-[6-[3-(trifluoromethyl)pyrrolidin-1-yl]-3-pyridyl]azetidin-1-yl]propyl]oxazolidin-2-one] — 31-fold lower, 14 nM
- O=C1N[C@H](CCC(=O)N2CCC(CNS(=O)(=O)c3ccc(OC(F)(F)F)cc3)CC2)CO1 [Example 159, N-[[1-[3-[(4R)-2-Oxooxazolidin-4-yl]propanoyl]-4-piperidyl]methyl]-4-(trifluoro-methoxy)benzene-sulfonamide] — within 1.5-fold, 434 nM
- O=C1N[C@H](CCC(=O)N2CC(c3ccc(S(=O)(=O)c4ccccc4)cc3)C2)CO1 [Example 74, (4R)-4-[3-[3-[4-(Benzenesulfonyl)phenyl]azetidin-1-yl]-3-oxo-propyl]oxazolidin-2-one] — 86-fold lower, 5 nM
- CS(=O)(=O)c1ccc(-c2ccc(C3CN(C(=O)CC[C@@H]4COC(=O)N4)C3)cn2)c(Cl)c1 [Example 116, (4R)-4-[3-[3-[6-(2-Chloro-4-methylsulfonyl-phenyl)-3-pyridyl]azetidin-1-yl]-3-oxo-propyl]oxazolidin-2-one] — 2.7-fold lower, 160 nM
- CS(=O)(=O)c1cccc(CC2CC3(C2)CN(C(=O)CC[C@@H]2COC(=O)N2)C3)c1 [Example 179, (4R)-4-[3-[6-[(3-Methyl-sulfonylphenyl)methyl]-2-azaspiro[3.3]heptan-2-yl]-3-oxo-propyl]oxazolidin-2-one] — 9.3-fold lower, 46 nM
- O=C1N[C@H](CCC(=O)N2CC(c3ccc(S(=O)(=O)C4CCCCC4)cc3)C2)CO1 [Example 77, (4R)-4-[3-[3-(4-Cyclohexylsulfonyl-phenyl)azetidin-1-yl]-3-oxo-propyl] oxazolidin-2-one] — 12-fold lower, 35 nM
- O=C1N[C@H](CCC(=O)N2CC3(CCC(NS(=O)(=O)c4cccc(OC(F)(F)F)c4)CC3)C2)CO1 [Example 138, N-[2-[3-[(4R)-2-Oxooxazolidin-4-yl]propanoyl]-2-azaspiro[3.5]nonan-7-yl]-3-(trifluoro-methoxy)benzene-sulfonamide] — 6.9-fold lower, 62 nM
- O=C1N[C@H](CCC(=O)N2CC(c3noc(-c4ccc(C(F)(F)F)nc4)n3)C2)CO1 [Example 168, (4R)-4-[3-Oxo-3-[3-[5-[6-(trifluoromethyl)-3-pyridyl]-1,2,4-oxadiazol-3-yl]azetidin-1-yl]propyl]oxazolidin-2-one] — 4.7-fold higher, 2020 nM
- O=C1N[C@H](CCC(=O)N2CC(c3ccc(-c4nc(C5(C(F)(F)F)CC5)n[nH]4)cc3)C2)CO1 [Example 178, (4R)-4-[3-Oxo-3-[3-[4-[3-[1-(trifluoro-methyl)cyclo-propyl]-1H-1,2,4-triazol-5-yl]phenyl]azetidin-1-yl]propyl]oxazolidin-2-one] — 2.4-fold lower, 181 nM
- COc1ccc(N(C)c2ccc(C3CN(C(=O)CC[C@@H]4COC(=O)N4)C3)cn2)nc1 [Example 92, (4R)-4-[3-[3-[6-[(5-Methoxy-2-pyridyl)-methyl-amino]-3-pyridyl]azetidin-1-yl]-3-oxo-propyl]oxazolidin-2-one] — within 1.5-fold, 293 nM
- O=C1N[C@H](CCC(=O)N2CC3(CCN(Cc4ccc(C(F)(F)F)nc4)CC3)C2)CO1 [Example 196, (4R)-4-[3-Oxo-3-[7-[[6-(trifluoro-methyl)-3-pyridyl]methyl]-2,7-diazaspiro [3.5]nonan-2-yl]propyl] oxazolidin-2-one] — within 1.5-fold, 507 nM
- O=C1N[C@H](CCC(=O)N2CC3(CN(Cc4ccc(S(=O)(=O)C(F)(F)F)cc4)C3)C2)CO1 [Example 187, (4R)-4-[3-Oxo-3-[6-[[4-(trifluoro-methylsulfonyl)phenyl]methyl]-2,6-diazaspiro [3.3]heptan-2-yl]propyl] oxazolidin-2-one] — 2.1-fold lower, 206 nM
- O=C1N[C@H](CCC(=O)N2CC3(CC(Nc4ccc(C(F)(F)F)nn4)C3)C2)CO1 [Example 151, (4R)-4-[3-Oxo-3-[6-[[6-(trifluoro-methyl)pyridazin-3-yl]amino]-2-azaspiro[3.3]heptan-2-yl]propyl] oxazolidin-2-one] — 2.9-fold higher, 1240 nM
- CS(=O)(=O)c1cc(C2CN(C(=O)CC[C@@H]3COC(=O)N3)C2)ccc1-c1ccc(Cl)cc1F [Example 120, (4R)-4-[3-[3-[4-(4-Chloro-2-fluoro-phenyl)-3-methylsulfonyl-phenyl]azetidin-1-yl]-3-oxo-propyl]oxazolidin-2-one] — 23-fold lower, 19 nM
- O=C1N[C@H](CCC(=O)N2CC(c3ccc(Oc4ccc(OC(F)(F)F)cc4)nc3)C2)CO1 [Example 31, (4R)-4-[3-Oxo-3-[3-[6-[4-(trifluoromethoxy)phenoxy]-3-pyridyl]azetidin-1-yl]propyl]oxaazolidin-2-one] — 5.2-fold lower, 83 nM
- O=C(CCCc1cnn[nH]1)N1CC(c2ccc(N3CCC(C(F)(F)F)C3)nc2)C1 (racemic) [Example 45, rac-4-(1H-Triazol-5-yl)-1-[3-[6-[3-(trifluoro-methyl)pyrrolidin-1-yl]-3-pyridyl]azetidin-1-yl]butan-1-one] — within 1.5-fold, 321 nM
- O=C(C(F)CCc1cnn[nH]1)N1CC(c2ccc(C3(C(F)(F)F)CC3)cc2)C1 (centres unmarked) [Example 70, 2-Fluoro-4-(1H-triazol-5-yl)-1-[3-[4-[1-(trifluoromethyl)cyclopropyl]phenyl]azetidin-1-yl]butan-1-one] — 6.9-fold lower, 62 nM
- CN(c1ccccc1)c1ccc(C2CN(C(=O)CC[C@@H]3COC(=O)N3)C2)cn1 [Example 93, (4R)-4-[3-[3-[6-(N-Methyl-anilino)-3-pyridyl]azetidin-1-yl]-3-oxo-propyl]oxazolidin-2-one] — 2.5-fold lower, 173 nM
- Cc1ncccc1Oc1ccc(C2CN(C(=O)CC[C@@H]3COC(=O)N3)C2)cc1 [Example 79, (4R)-4-[3-[3-[4-[(2-Methyl-3-pyridyl)oxy]phenyl]azetidin-1-yl]-3-oxo-propyl]oxazolidin-2-one] — 13-fold lower, 33 nM
- O=C1N[C@H](CCC(=O)N2CC(c3ccc(N4CCC(O)(C(F)(F)F)C4)nc3)C2)CO1 (stereo partly drawn) [Example 146, (4R)-4-[3-[3-[6-[3-Hydroxy-3-(trifluoro-methyl)pyrrolidin-1-yl]-3-pyridyl]azetidin-1-yl]-3-oxo-propyl] oxazolidin-2-one] — 3.1-fold lower, 137 nM
- O=C1N[C@H](CCC(=O)N2CC(c3cnc(N4CCC(C(F)(F)F)C4)nc3)C2)CO1 (stereo partly drawn) [Example 107, (4R)-[3-Oxo-3-[3-[2-[3-(trifluoro-methyl)pyrrolidin-1-yl]pyrimidin-5-yl]azetidin-1-yl]propyl]oxazolidin-2-one] — 2-fold lower, 216 nM
